Our source for the TGI values is PubChem BioAssay (NCI).

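Five compound concentrations were applied to cells in 96-well plates for 48 hours; endpoints were derived by simple linear interpolation of the resulting dose-response curve. At the TGI there is no net growth.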 Some results are limits rather than exact numbers.

What all share (test): DTP human tumour cell line panel, 48 h
Assay [1] has as its system M14 melanoma.
In assay [2] the test system is OVCAR-8 ovarian.
The subject of assay [3] is A498 renal.
The test system of assay [4] is COLO 205 colon.
The test system of assay [5] is HCC-2998 colon.
For assay [6], the system named is BT-549 breast.
Assay [7] deals with MALME-3M melanoma.
Assay [8] concerns SR leukemia.
In assay [9] the test system is CCRF-CEM leukemia.
The subject of assay [10] is KM12 colon.

Regarding `O=[N+]([O-])c1ccc2c(c1)n1c(N3CCCC3)[n+]3ccccc3c1c1c3cccc[n+]3c(N3CCCC3)n21`, the concentration for total growth inhibition (TGI) in [1], in [2], in assay [3], in assay [4], in assay [5] and in [6] was more than 100 µM each time. In addition, the TGI (usually the concentration giving total growth inhibition) in assay [7] is more than 100 µM; in assay [8], more than 100 µM; in assay [9], 79.9 µM; in assay [10] it was more than 100 µM.
Turning to `CC1CN=C(c2ccc(-c3nc(-c4ccc(C5=NCC(C)N5)cc4)nc(N(C)C)n3)cc2)N1` (stereo not given), the TGI in [1] worked out at 8.68 µM; in assay [2] it was 10 µM; in [3] it was 6.7 µM; in assay [4], 2.38 µM; in [5] it was 3.76 µM; in assay [6], 13.7 µM. The TGI in assay [7] turned out to be 8.87 µM; in [8], 2.49 µM; in assay [9], 3.59 µM; in [10] it was 8.96 µM.
For the compound `CC(C)(Cc1ccccc1)N1C(=O)N1C(C)(C)Cc1ccccc1`, the TGI in assay [1] was more than 100 µM; in [2] it was more than 100 µM; in assay [3], more than 100 µM; in [4] it was 77.8 µM; in [5] it was more than 100 µM; in assay [6], more than 100 µM. In addition, the total growth inhibition concentration (TGI) in assay [7] was 98.4 µM; in assay [8], more than 100 µM; in assay [9] it was 61.3 µM; in [10] it was more than 100 µM.
As for `O=NN1CCCS1(=O)=O`, the TGI in [1], in [2], in assay [3], in assay [4], in assay [5] and in assay [6] was more than 100 µM in each case. The TGI in assay [7], in assay [8], in assay [9] and in [10] was more than 100 µM each time.
Take `O=[N+]([O-])c1ccc2nc(/C=C(\O)c3ccc(Cl)cc3)c(/C=C(\O)c3ccc(Cl)cc3)nc2c1`: the TGI in [1], in [2], in assay [3], in [4], in assay [5] and in assay [6] was more than 100 µM each time. In addition, the TGI in [7], in [8], in assay [9] and in assay [10] was more than 100 µM throughout.
`O=C1C(Cl)=C(c2ccc([N+](=O)[O-])cc2)C(=O)c2c(O)cccc21`: the TGI in [1] was 3.66 µM; in [2] it was 5.78 µM; in assay [3] it was 12.5 µM; in assay [4], 3.66 µM; in assay [5], 6.24 µM; in [6] it was 4.72 µM. Further, the TGI is 4.49 µM in assay [7], more than 100 µM in assay [8], more than 100 µM in [9] and 3.63 µM in assay [10].
On to `COc1cc2c(cc1O)CCN(C)[C@H]2Cc1ccc(Oc2c(O)c(OC)cc3c2C[C@H]2c4c(c(OC)c(OC)c(OC)c4-3)CCN2C)cc1`, for which the TGI in assay [1] was found to be 10.9 µM; in assay [2] it was 13.1 µM; in [3], 12.7 µM; in assay [4] it was 12.7 µM; in assay [5], 8.09 µM; in [6] it was 11.8 µM. In addition, the TGI in assay [7] was found to be 13.6 µM; in [8], 4.86 µM; in assay [9], 9.28 µM; in assay [10], 8.89 µM.
For `O=C1c2ccccc2C(=O)c2nn(N=P(CP(=Nn3nc4c(n3)C(=O)c3ccccc3C4=O)(c3ccccc3)c3ccccc3)(c3ccccc3)c3ccccc3)nc21`, the TGI in assay [1], in assay [2], in assay [3], in assay [4], in assay [5] and in [6] was more than 100 µM throughout. The total growth inhibition concentration (TGI) in assay [7], in [8], in assay [9] and in [10] was more than 100 µM in each case.
Turning to `COc1ccc(OC)c(C[P+](c2ccccc2)(c2ccccc2)c2ccccc2)c1`, the TGI in [1] was 18.3 µM; in [2], more than 65.3 µM; in assay [3] it was 23.5 µM; in assay [4], 2.76 µM; in assay [5] it was 26.2 µM; in assay [6] it was 29.1 µM. In addition, the TGI in assay [7] is 23.3 µM; in [8], 6.07 µM; in assay [9] it was more than 26.8 µM; in [10], 14.1 µM.
As to `Cc1ccc(/C=N\NC(=O)c2ccncc2)s1`, the TGI in [1], in [2], in assay [3], in assay [4], in assay [5] and in [6] was more than 100 µM in each case. Moreover, the concentration for total growth inhibition (TGI) in [7], in [8], in assay [9] and in [10] was more than 100 µM in each case.
